Data published in patent publication US6750247B2, “Sponge-derived terpenoids and methods of use” (Galileo Laboratories, Inc., priority 2001, dated 2004).
Structures can show the parent of a compound that is named as a salt.

Experiments:
[1] = tested on: neonatal cardiomyocytes; test: Myocyte calcium-contractility assay (cardiomyocyte beating anoxia assay); assay type: cell-based, rat; details: 16 hr anoxia, 2 hr reoxygenation; for Percent Activity: at dose for max. activity, Fluo-4 fluorescence
Method: 10× Heart Dissection Solution (HDS) contains the following components (g/l) in tissue culture grade water: NaCl, 68; HEPES, 47.6; NaH2PO4, 2; Glucose, 10; KCl, 4; MgSO4, 1, pH adjusted to 7.4. Prior to filter sterilization of diluted (1× HDS) solution, 10 mg phenol red was added to each 500 milliliters of medium. Transferrin and Bovine Insulin were obtained from Life Technologies, and resuspended at a concentration of 4 mg/ml in tissue culture grade water. DMEM-F12- DMEM/F12, powder, 1:1 containing glutamine and pyridoxine hydrochloride was purchased from Life Technologies. To one liter equivalent of the powder was added 2.43 g of sodium bicarbonate and 10 ml of 100× Penicillin/Streptomycin in 950 ml of tissue culture grade water with stirring. The pH was adjusted to 7.2 with 1M HCl and volume was adjusted to 1 liter. The solution was filter sterilized then 2.5 ml of 4 mg/ml Transferrin, 250 μl 4 mg/ml Insulin and 30.7 mg of bromodeoxyuridine were added. DMEM-F12 was also prepared with 4% FBS for pre-coating the tissue culture plates and initial suspension of the cardiomyocyte pellet. Collagenase solution-49 mg of collagenase was resuspended in 120 ml 1× HDS.
Tissue culture plasticware was pre-coated with DMEM-F12-4% FBS by incubating 50 μl per well of a 96-well plate. Two-day old rat pups were removed from their mothers and placed in a sterile container. Pups were dipped quickly into 70% alcohol, then decapitated and the body was placed in an empty sterile tissue culture dish. An incision was made starting at the neck and progressing towards the belly, cutting through the sternum. The heart was removed and placed in a tissue culture dishes containing 1× HDS. The atria were trimmed, and the remaining ventricles were placed into a separate tissue culture dish containing 1× HDS, where they were sectioned into 3-4 pieces each. Ventricles were then transferred to a sterile 250 ml glass flask and the 1× HDS was removed. Twenty milliliters of pre-warmed collagenase solution were added to the ventricles, followed by incubation at 37° C. with shaking. After 30 minutes, the collagenase solution was removed and replaced with 20 ml fresh pre-warmed collagenase. Incubation was continued for an additional 20 minutes. At the end of the incubation, any tissue chunks were allowed to settle prior to removing the collagenase (containing the isolated cardiomyocytes) from the disrupted tissue pieces. The isolated myocytes were added to a 50 ml Falcon tube containing 2 ml Fetal Bovine Serum (FBS). The remaining tissue pieces were subjected to a second digestion by adding 20 ml fresh pre-warmed collagenase and incubating as above for 20 minutes. This second digest was then centrifuged at 1000 rpm for 10 minutes in a GH 3.8 A rotor in an Allegra 6 Centrifuge (Beckman Instruments, Fullerton, Calif.). The resulting supernatant was discarded, and the cell pellet was suspended with 4 ml FBS. The resulting cell suspension was placed in the incubator at 37° C. This step was repeated several additional times to harvest additional material.
Percoll gradients were prepared by adding 2.5 ml of 10× HDS to 22.5 ml of Percoll (Life Technologies) with mixing (Percoll Stock). Top Gradient solution (11 ml Percoll Stock and 14 ml 1× HDS) and Bottom Gradient solution (13 ml Percoll Stock and 7 ml 1× HDS) were prepared. Four milliliters of the Top Gradient solution were transferred into 6×15 ml sterile Falcon tubes. Three milliliters of the Bottom Gradient solution were placed in each tube by inserting a serological pipette to the bottom of the tube and slowly adding the liquid.
All the digests (5 in total) were pooled in one 50 ml Falcon tube and centrifuged on a tabletop Allegra 6 Centrifuge (Beckman Instruments, Fullerton, Calif.) using a GH 3.8 A rotor at 1000 rpm for 10 minutes. The supernatant was discarded, and the cell pellet was resuspended in 12 ml of 1× HDS. Two milliliters of the cell suspension was added to the top of each gradient. […]

[2] = tested on: primary hippocampal neuronal cells; test: Hippocampal anoxia-reoxygenation cell death assay; assay type: cell-based, mice; details: for Dose for Max. Activity / Percent Activity: 5 hr hypoxia, 20-24 hr reoxygenation; for Percent Activity: at dose for max. activity, live neurons by Cell Tracker Green; for cell viability: compared to hypoxia-reoxygenated cells
Method: Neurobasal medium (Life Technologies, Rockville, Md.) with 1× B27 supplement (Life Technologies), […], 25 μM L-glutaxnic acid, and 1× Penicillin/Streptomycin was prepared fresh prior to use. Hank's Basic Salt Solution (HBSS, Ca/Mg-free) was prepared by preparing 1× Hanks CMF (Gibco) supplemented with HEPES (10 mM, pH 7.3), sodium bicarbonate (0.35%), 1× Penicillin/Streptomycin, and 1 mM pyruvate. Poly-D-lysine (Sigma, St. Louis, Mo.) was prepared by filtering a 50 μg/ml solution through 0.2 μm filter tubes. Sigmacote (Sigma, St. Louis, Mo.). Plastic Culture Flasks (T75 cm^2) or 12-well cell culture plates were then treated with Poly-D-Lysine (Sigma, St. Louis, Mo.).
Pregnant female mice (E18-E19) were euthanized with CO2 prior to removal of the uterus, which was then placed in a sterile plastic petri dish. The embryos were removed from the sac, and the embryonic brains removed and immersed in cold (4° C.) Hepes Buffered Salt Solution (HBSS; Ca/Mg free; Life Technologies) in a small petri dish. Hippocampi were then removed from the brains under a dissecting microscope and were placed on a paraffin-covered dish. The meninges were stripped away and the dissected hippocampi were collected in a small petri dish in HBSS. The hippocampi were transferred to a 15-ml centrifuge tube (normally 10-12 brains per tube) filled with HBSS. The tube containing the brains was centrifuged at 1000 rpm for 2 minutes in a GH 3.8 A rotor in an Allegra Centrifuge (Beckman Instruments, Fullerton, Calif.). The supernatant was removed, 2 ml of HBSS was added to the hippocampi in the tube, and the resulting suspension was triturated 2 times each with long-tipped siliconized glass pipettes having progressively smaller apertures, starting with a pipette with a standard size opening (approximately 1.0 mm diameter), following with one having an aperture of half standard size (approximately 0.5 mm diameter), then with one having an aperture about one-half that size (0.25 mm diameter). The suspension was then centrifuged again at 1000 rpm for 2 min in a tabletop centrifuge, the supernatant was discarded, and 2 ml of Neurobasal/B27i (with antibiotics) was added to the tube. The trituration procedure described above was then repeated on this suspension.
The density of cells was determined on a small aliquot of cells using standard counting procedures and correcting for cell viability by trypan blue stain exclusion. Using this procedure, the expected yield is 3×10^5-6×10^5 cells/brain. Cells were then added to PDL-coated 12 well plates, flasks or MetTek dishes in Neurobasal/B27I at a density of about 1.5×10^6 cells (T75 flask) or about 100,000 cells/well of a 12-well plate. Plated cells were incubated at 37° C. with 5% CO2 in air atmosphere. Media was renewed after 3-4 days by replacing half of it with fresh Neurobasal/B27m medium, containing 5 μM cytosine arabinoside (AraC). Seven to eight days from the initial culture, the media was renewed again, by removing one-half or it and replacing with an equal amount of fresh Neurobasal/B27m medium (without Ara-C).
This assay was used to induce ischemia by anoxia-reoxygenation in cultured hippocampal neuronal cells. Test compounds were added to assess potency and efficacy against ischemia-induced neuronal cell injury and cell death.
Neurobasal media, NoG neurobasal media, B27 supplement and B27 Supplement minus AO were obtained from Life Technologies. Neurobasal/B27 medium was prepared with 2× B27 minus AO supplement, 0.5 mM L-glutamine and 0.25× penicillin/streptomycin. Cell Tracker Green was obtained from Molecular Probes and a fresh 5 μM solution was prepared from 10 mM stock just before use. NoG-Neurobasal contains NoG neurobasal medium plus 0.5 mM glucose, 0.1 mM L-glutamine and 0.25× Penicillin/Streptomycin. Primary hippocampal neuronal cells were prepared according to the methods described above and were cultured in poly-D-lysine coated 12 well plates for 10-11 days prior to use. […]

[3] = target: T1, 15-human lipoxygenase (15-HLO) (Homo sapiens, UniProt P16050); test: 15-human lipoxygenase (15-HLO) inhibition assay; assay type: biochemical; details: 3 μM linoleic acid, pH 7.5, approx. 22° C.
T1 construct: made in house
T1 sequence (P16050 1-662): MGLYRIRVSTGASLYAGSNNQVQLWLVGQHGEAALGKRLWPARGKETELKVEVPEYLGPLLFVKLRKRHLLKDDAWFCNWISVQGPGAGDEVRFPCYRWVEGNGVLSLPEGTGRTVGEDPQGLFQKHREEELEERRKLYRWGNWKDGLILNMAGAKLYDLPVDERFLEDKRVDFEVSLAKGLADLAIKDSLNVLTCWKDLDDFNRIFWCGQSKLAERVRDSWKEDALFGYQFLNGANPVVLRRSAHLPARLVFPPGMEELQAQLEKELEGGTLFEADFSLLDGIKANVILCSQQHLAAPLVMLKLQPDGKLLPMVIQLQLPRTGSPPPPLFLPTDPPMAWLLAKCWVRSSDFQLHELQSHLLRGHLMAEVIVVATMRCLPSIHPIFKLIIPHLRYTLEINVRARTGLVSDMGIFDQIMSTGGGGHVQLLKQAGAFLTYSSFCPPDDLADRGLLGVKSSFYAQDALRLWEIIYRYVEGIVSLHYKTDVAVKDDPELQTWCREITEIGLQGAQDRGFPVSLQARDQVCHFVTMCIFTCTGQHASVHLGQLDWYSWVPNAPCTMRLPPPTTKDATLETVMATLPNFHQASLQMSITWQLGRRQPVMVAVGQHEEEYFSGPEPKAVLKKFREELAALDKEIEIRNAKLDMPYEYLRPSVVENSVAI
Method: 15-human lipoxygenase (15-HLO) was expressed and purified as described by Holman et al., J. Am. Chem. Soc. […] 15-HLO enzyme activity was determined by direct measurement of the product formation of a 3 μM linoleic acid solution by monitoring the increase of absorbance at 234 nm in 25 mM Hepes (pH 7.5), 0.2% (g/L) cholic acid. All reactions were performed in 2 ml of buffer (approx. 200 nM 15-HLO) under constant stirring at approximately 22° C. IC50 values were determined by measuring the enzymatic rate at a variety of inhibitor concentrations (depending upon inhibitor potency) and plotting their corresponding values versus inhibitor concentration. The corresponding data was fit to a simple saturation curve and the inhibitor concentration at 50% activity was determined. The subject inhibitors used in the assay were dissolved in MeOH at a concentration of approximately 25 mg/ml.

IC50 [3] [nM] | SMILES | Dose for Max. Activity [1] [µg/mL] | cell viability [1] | Percent Activity [1] | Dose for Max. Activity [2] [µg/mL] | Percent Activity [2] | cell viability [2]
 | CC(C)=CCC[C@@]1(C)CCC[C@]2(C)[C@@H](Cc3cc(C(=O)O)ccc3O)C(C)=CC[C@@H]12 [(−)-jaspic acid (4), 4-hydroxy-3-[2,5,8a-trimethyl-5-(4-methyl-pent-3-enyl)-1,4,4a,5,6,7,8,8a-octahydro-naphthalen-1-ylmethyl]-benzoic acid] | 3 | increased cell viability | 59% | 1 | 63% | increased cell viability
 | CC(=O)O[C@@H]1OC=C2[C@@H](OC(C)=O)C[C@H]3[C@]4(C)CC[C@@H]5C([C@H](C)CCC5(C)C)[C@H]4C[C@@H](O)[C@]3(C)[C@H]21 (some centres unmarked) [Heteronemin (13), 24,25-epoxy-17(24)-scalarene-12-ol-16,25-diacetate] |  |  | No activity at 100 μg/mL | 0.1 | 21% | increased cell viability
 | CC(C)=CCC/C(C)=C/CCC1=CC(=O)OC1O (racemic) [Dictyodendrillin B (11), 4-(4,8-dimethyl-nona-3,7-dienyl)-5-hydroxy-5H-furan-2-one] |  |  | No activity at 100 μg/mL | 0.1 | 56% | increased cell viability
 | CC1CCC2C(=CCCC2(C)C)C1(C)CCC(CO)CCCc1ccoc1 (centres unmarked) [Halisulfate 7 alcohol (8), 5-furan-3-yl-2-[2-(1,2,5,5-tetramethyl-1,2,3,4,4a,5,6,7-octahydro-naphthalen-1-yl)-ethyl]-pentan-1-ol] |  |  | No activity at 75 μg/mL |  | No activity at 10 μg/mL | 
 | CC(C)=CCC/C(C)=C/CCC1=CC(O)OC1=O (racemic) [Dictyodendrillin C (12), 3-(4,8-dimethyl-nona-3,7-dienyl)-5-hydroxy-5H-furan-2-one] | 100 | increased cell viability | 46% |  |  | 
400 | CCCCCCCC/C=C\CCCCCCCCOS(=O)(=O)O [oleyl sulfate, reference compound] |  |  |  |  |  | 
